Assays:
HC11 cells = assay: Polysomal distribution of capped luciferase mRNA in HC11 cells; assay type: cell-based, mouse; conditions: HC11 cells lysed 4 h after electroporation, sucrose gradient
Experimental: To separate ribosomal subunits and initiation complexes, 4×10^6 HC11 cells were treated for 2 min with ice-cold PBS containing 0.1 mg/ml cycloheximide, washed twice with the same medium, and lysed in 600 μl of 0.3 M NaCl, 15 mM Tris-HCl (pH 7.6), 15 mM MgCl2, 1% Triton X-100, 1 mg/ml heparin, and 0.1 mg/ml cycloheximide. After centrifugation at 14,000×g for 10 min, the supernatant was layered on a 15-45% sucrose gradient in the same buffer but lacking Triton X-100 and centrifuged in a Beckman SW41 Ti rotor at 38,000 rpm at 4° C. for 2 h. Gradients were fractionated with continuous monitoring of absorbance at 260 nm. RNA from each fraction (1 ml) was isolated and analyzed by real time PCR.
We used an independent method to validate the observation that m2^7,2′-OGppspG-capped mRNAs were translated more efficiently, namely, their polysomal distribution (FIGS. 9A-9E). An increase in the rate of initiation relative to elongation or termination results in a shift of the mRNA from lighter to heavier polysomes. See H. Lodish, “Model for the regulation of mRNA translation applied to haemoglobin synthesis,” Nature, vol. 251, pp. 385-388 (1974). The type of cap structure is not expected to affect the rate of elongation. Thus, a shift to higher polysomes indicates faster initiation.
Luc A60 mRNA capped with m^7 Gp3G, m2^7,2′-OGp3G or m2^7,2′-OGppspG (D2) was electroporated into HC11 cells. […]

DcpS = biological target: T1, DcpS (Homo sapiens, UniProt Q96C86); assay: Enzymatic hydrolysis by human DcpS; assay type: biochemical; set-up: key: the analogs assigned as resistant remained completely undigested under the applied conditions; the analogs assigned as hydrolyzed were hydrolyzed by DcpS with efficiency comparable to the respective unmodified parent compound; conditions: conditions giving complete degradation of unmodified parent within 40-90 min, RP HPLC
T1 sequence (Q96C86 1-337): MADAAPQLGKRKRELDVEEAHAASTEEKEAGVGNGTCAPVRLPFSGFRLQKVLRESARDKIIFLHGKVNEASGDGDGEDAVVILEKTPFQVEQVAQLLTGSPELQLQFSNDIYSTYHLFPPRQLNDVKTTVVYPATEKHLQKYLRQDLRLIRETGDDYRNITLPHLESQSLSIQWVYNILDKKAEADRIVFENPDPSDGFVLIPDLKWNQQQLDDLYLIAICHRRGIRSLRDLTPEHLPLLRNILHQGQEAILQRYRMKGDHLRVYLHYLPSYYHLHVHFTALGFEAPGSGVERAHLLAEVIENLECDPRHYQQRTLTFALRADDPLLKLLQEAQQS
Experimental: Human and nematode DcpS were expressed in Escherichia coli according to the procedures described previously (L. S. Cohen et al., “Nematode m7 GpppG and m3(2,2,7)GpppG decapping: activities in Ascaris embryos and characterization of C. elegans scavenger DcpS,” RNA, vol. 10, pp. 1609-1624 (2004)). Both proteins were stored at −80° C. in 20 mM Tris buffer, pH 7.5, containing 50 mM KCl, 0.2 mM EDTA, 1 mM DTT, 0.5 mM PMSF, and 20% glycerol. An appropriate cap analog at 1 mM concentration was treated with 5.0 or 7.0 μl of DcpS (from human or C. elegans, respectively) in 500 μl of 50 mM TRIS buffer, pH=7.9, containing 20 mM of MgCl2 and 60 mM of (NH4)2SO4 at 37° C. for 60-90 min. Every 15-20 min a 100 μl sample was collected from the reaction mixture and deactivated by incubation in 90° C. for 3 min. Collected samples were analyzed without further treatment by analytical RP HPLC using a linear gradient of methanol in 0.1 M KH2PO4, pH=6.0, from 0-50% within 15 min and UV-detection at 260 nm.
The new series of S-analogs were subjected to in vitro enzymatic hydrolysis catalyzed by DcpS from both human and C. elegans sources. In all experiments, the corresponding unmodified cap analog was used as a positive control, i.e., m^7GpppG for non-ARCA S-analogs and m2^7,2′-OGpppG for S-ARCAs. The amount of DcpS enzyme was optimized to provide complete degradation of the control substrate within 40-90 min. The samples collected from reaction mixtures at various time intervals were analyzed by RP HPLC (as described in Materials and Methods).
In Table 4, cap analogs at 4 μM concentration were subjected to enzymatic digestion by DcpS in conditions leading to complete degradation of the unmodified parent compound (i.e. m^7GpppG for non-ARCA S-analogs and m2^7,2′-OGpppG for ARCAs) within 40-90 min. Samples collected from reaction mixtures at various time intervals were analysed by RP HPLC with UV detection at 260 nm as described in Materials and Methods. […] The result was unchanged even if the reaction time was extended to 24 h, various amounts of enzyme were used, and composition of the reaction buffer was modified.

[1] = system: rabbit reticulocyte lysate; assay: Cell-free translation of capped Luc-A60 mRNA in the rabbit reticulocyte lysate system; assay type: biochemical; conditions: data not shown
Excerpt: Luc-A60 mRNA capped with m2^7,2′-OGppspG (D1) and m2^7,2′-OGppspG (D2) was translated 2.8- and 5.1-fold more efficiently than m^7Gp3G-capped mRNA, respectively (FIG. 8 and Table 2). For cell-free translation in the rabbit reticulocyte lysate system, Luc-A60 mRNAs capped with m2^7,2′-OGppspG (D1) and m2^7,2′-OGppspG (D2) were translated only 2.3-fold more efficiently than Luc-A60 mRNA capped with m^7Gp3G (data not shown).

Molecule | polysomal distribution of capped Luc A60 mRNA (HC11 cells) | Resistance to enzymatic hydrolysis by DcpS (human) (DcpS) | translational efficiency relative to m^7Gp3G-capped Luc-A60 mRNA [1] [fold]
CO[C@@H]1[C@H](O)[C@@H](COP(=O)(O)OP(=O)([O-])OP(=O)(O)OC[C@H]2O[C@@H](n3cnc4c(=O)[nH]c(N)nc43)[C@H](O)[C@@H]2O)O[C@H]1n1c[n+](C)c2c(O)nc(N)nc21 [m2^7,2′-OGpppG, reference compound] | shifted to higher polysomes | hydrolyzed | –
m2^7,2′-OGpppsG (D1) [Compound 4a] | – | hydrolyzed | –
m2^7,2′-OGpppsG (D2) [Compound 4b] | – | hydrolyzed | –
m2^7,2′-OGppspG (D1) [Compound 5a] | – | hydrolyzed | 2.3
m2^7,2′-OGppspG (D2) [Compound 5b] | shifted to even higher polysomes | hydrolyzed | 2.3
m2^7,2′-OGpsppG (D1) [Compound 6a] | – | resistant | –
m2^7,2′-OGpsppG (D2) [Compound 6b] | – | resistant | –

Source: patent US8153773B2, “Synthesis and use of anti-reverse phosphorothioate analogs of the messenger RNA cap” (Board of Supervisors of Louisiana State University and …, priority 2007, dated 2012)
